Data published in PubChem BioAssay AID2060887 (Molecular Pharmacology Branch, DTP, NCI, 2025).

Tested on: 782815-120-R-J1-PDC complex spheroid viability
Test: Anticancer human tumor 782815-120-R-J1-PDC patient-derived colon adenocarcinoma cell line growth inhibition [RAS]
Conditions: for IC50: curve of first compound; for viability, T/C: stronger effect = lower value
Summary of the method: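 Multi-cell-type spheroids: tumor cells plus HUVEC endothelial cells and mesenchymal stem cells. RAS-pathway inhibitors were combined with targeted agents, each dosed in half-log steps down from clinical Cmax, or from 10 microM when Cmax was unknown.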
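Also: spheroids exposed to compounds for 7 days before reading.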
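For viability, T/C in this document: 100% = DMSO vehicle control viability.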

CC(Nc1ccc2c(c1)OCCn1cc(N3C(=O)OCC3C(F)F)nc1-2)C(N)=O (configuration not stated) + C=CC(=O)N1CCN(c2nc(OCC3CCCN3C)nc3c(F)c(-c4nc(N)cc(C)c4C(F)(F)F)c(Cl)cc23)C(C)C1 was tested, and the IC50 (second compound 0.00316 µM) was > 10 µM, the IC50 (second compound 0.01 µM) was > 10 µM and the IC50 (second compound 0.0316 µM) was > 10 µM. For the same compound, the IC50 (second compound 0.1 µM) was > 10 µM, the IC50 (second compound 0.316 µM) was > 10 µM and the IC50 (second compound 1 µM) was > 10 µM. It also gave a viability, T/C (second compound 0.00316 µM, first compound 0.0316 µM) of 92.9%, a viability, T/C (second compound 0.00316 µM, first compound 0.1 µM) of 87.6% and a viability, T/C (second compound 0.00316 µM, first compound 0.316 µM) of 88.4%. The viability, T/C (second compound 0.00316 µM, first compound 1 µM) was 79.1%, the viability, T/C (second compound 0.00316 µM, first compound 3.16 µM) was 99.6% and the viability, T/C (second compound 0.00316 µM, first compound 10 µM) was 103%. The viability, T/C (second compound 0.01 µM, first compound 0.0316 µM) was 93.5%, the viability, T/C (second compound 0.01 µM, first compound 0.1 µM) was 98.6% and the viability, T/C (second compound 0.01 µM, first compound 0.316 µM) was 95.8%. For the same compound, the viability, T/C (second compound 0.01 µM, first compound 1 µM) was 83.6%, the viability, T/C (second compound 0.01 µM, first compound 3.16 µM) was 103% and the viability, T/C (second compound 0.01 µM, first compound 10 µM) was 98.8%. For the same compound, the viability, T/C (second compound 0.0316 µM, first compound 0.0316 µM) was 93.2%, the viability, T/C (second compound 0.0316 µM, first compound 0.1 µM) was 93.6% and the viability, T/C (second compound 0.0316 µM, first compound 0.316 µM) was 82.3%. It also gave a viability, T/C (second compound 0.0316 µM, first compound 1 µM) of 80.6%, a viability, T/C (second compound 0.0316 µM, first compound 3.16 µM) of 87.8% and a viability, T/C (second compound 0.0316 µM, first compound 10 µM) of 93.3%. The viability, T/C (second compound 0.1 µM, first compound 0.0316 µM) was 88.3%, the viability, T/C (second compound 0.1 µM, first compound 0.1 µM) was 91.1% and the viability, T/C (second compound 0.1 µM, first compound 0.316 µM) was 94.1%. For the same compound, the viability, T/C (second compound 0.1 µM, first compound 1 µM) was 86.1%, the viability, T/C (second compound 0.1 µM, first compound 3.16 µM) was 102% and the viability, T/C (second compound 0.1 µM, first compound 10 µM) was 93.2%. For the same compound, the viability, T/C (second compound 0.316 µM, first compound 0.0316 µM) was 93.6%, the viability, T/C (second compound 0.316 µM, first compound 0.1 µM) was 86.4% and the viability, T/C (second compound 0.316 µM, first compound 0.316 µM) was 86.4%. It also gave a viability, T/C (second compound 0.316 µM, first compound 1 µM) of 89.2%, a viability, T/C (second compound 0.316 µM, first compound 3.16 µM) of 85.1% and a viability, T/C (second compound 0.316 µM, first compound 10 µM) of 101%. For the same compound, the viability, T/C (second compound 1 µM, first compound 0.0316 µM) was 95.2%, the viability, T/C (second compound 1 µM, first compound 0.1 µM) was 79.5% and the viability, T/C (second compound 1 µM, first compound 0.316 µM) was 87.2%. It also gave a viability, T/C (second compound 1 µM, first compound 1 µM) of 85.2%, a viability, T/C (second compound 1 µM, first compound 3.16 µM) of 97.8% and a viability, T/C (second compound 1 µM, first compound 10 µM) of 92.8%.
